Test results from article PMC4981864, “Novel pH-Sensitive Cyclic Peptides” (Scientific Reports, 2016).

Experiments:
[1] = assay type: physicochemical; details: pH 8
Procedure: (§1) Large unilamellar vesicles (LUVs) were prepared by extrusion. POPC, 1-palmitoyl-2-oleoyl-sn-glycero-3-phosphocholine (Avanti Polar Lipids), or a mixture of POPC with 0.5% of 18:1 NBD-PE, 1,2-dioleoyl-sn-glycero-3-phosphoethanolamine-N-7-nitro-2-1,3-benzoxadiazol-4-yl ammonium salt (Avanti Polar Lipids) were dissolved in chloroform, desolvated on a rotary evaporator, and dried under high vacuum for several hours. The phospholipid film was then rehydrated in 10 mM phosphate buffer pH 8.0, vortexed until the lipid bilayer was completely dissolved, and repeatedly (15–21 times) extruded through the membranes with 50 nm pore sizes to obtain LUVs.
pH-dependent partitioning of the peptides into a lipid bilayer of the membrane was investigated by the shift of the position of the fluorescence spectral maximum for the peptides in the presence POPC liposomes induced by a drop of pH from 8 to 2.5 by the addition of HCl. The peptides were incubated overnight with 50-nm POPC liposomes (final concentration of the peptides and POPC in solution was 5 μM and 1 mM, respectively), and pH decrease was achieved by the addition of aliquots of 4, 2, 1 and 0.1 M HCl. pH was measured by micro-electrode probe (Thermo Electron Corporation, Orion Ross Micro pH electrode). Fluorescence spectra were recorded at each pH value. The spectra were analyzed by the decomposition algorithms using on-line PFAST toolkit[47] (Protein Fluorescence and Structural Toolkit: http://pfast.phys.uri.edu/) to establish the position of the emission maximum. Finally, the positions of the fluorescence spectral maxima (λmax) were plotted versus pH, and the Henderson–Hasselbalch equation was used to fit the data (using Origin 8.5 software): […]
where [drawing 3] and [drawing 4] are the beginning and the end of the transition, respectively, and pKa – is the midpoint of the transition.

[2] = Steady-state tryptophan fluorescence and CD with and without POPC liposomes; assay type: physicochemical
Procedure: as §1
Freshly prepared peptides and POPC vesicles were mixed to have 5 μM of a peptide and 1.25 mM of lipids in the final solution. Steady-state fluorescence measurements were carried out on a PC1 spectrofluorometer (ISS, Inc.) under temperature control at 25 °C. Tryptophan fluorescence was excited at 280 nm (there is no Phe or Tyr in the peptides) and recorded with the excitation and emission slits set at 1 nm. The polarizers in the excitation and emission paths were set at the “magic” angle (54.7° from the vertical orientation) and vertically (0°), respectively. Steady state CD measurements were carried out in MOS 450 spectropolarimeter (Bio-Logic, Inc.) with the same concentrations of peptide and lipids used in fluorescence measurements.

[3] = Dual quenching assay (acrylamide / 10-DN); assay type: physicochemical; details: 7 μM peptide, 2.1 mM POPC
From the text: To establish localization of the peptides within a lipid bilayer of membrane, dual quenching assay[28] was employed (Fig. 3 and Table S3). Effective quenching of fluorescence by acrylamide would occur only for tryptophan residues exposed to polar parts of the outer or inner leaflets of the bilayer. At the same time, tryptophan residues located in the middle of a membrane would be effectively quenched by 10-DN. The result of the dual quenching assay allows establishing if tryptophan residues were located in the middle of a membrane or close to the polar headgroups of the bilayer. […] Therefore, we also performed Förster resonance energy transfer (FRET) assay[29] (Fig. 4). First, symmetrically-labelled by NBD dye, POPC liposomes were prepared. Then, membrane-impermeable dithionite was used to chemically modify exposed NBD, which led to the quenching of NBD fluorescence. Thus, NBD dyes located at the outer leaflet of the bilayer were deactivated and excess of dithionite was removed by gel filtration. As a result, asymmetrically-labelled liposomes with active NBD at the inner leaflet were obtained. FRET was monitored from tryptophan residues of the peptides to NBD. Energy transfer might occur only when both fluorophores are in proximity to each other (within 5–15 Å). Thus, when tryptophan residues located at the outer leaflet of the bilayer no significant energy transfer to NBD at the inner leaflet would occur (the distance is about 50–60 Å). […] All other peptides were located at the outer leaflet of the bilayer at pH 8. Drop of pH promoted partitioning of all cyclic peptides into bilayer, which highest FRET for the c[E4W5C] at pH 3.
POPC liposomes without and with 10% of the lipids replaced by 10-doxylnonadecane (10-DN) (Avanti Polar Lipids) were prepared in 10 mM citrate-phosphate buffer pH 8.0. Peptides and POPC liposomes were mixed to generate final concentrations of 7 μM peptide and 2.1 mM POPC without and with 10-DN. […] Quencher, acrylamide (Sigma-Aldrich), was added to the samples of POPC liposomes containing no 10-DN, to have final concentration of 235 mM acrylamide. Concentration of peptides in all samples was kept constant. To observe quenching of tryptophan fluorescence by 10-DN or acrylamide, the tryptophan fluorescence was recorded as described above. The appropriate POPC blanks were measured and subtracted from the measured spectra before analysis. The percentage of quenching was calculated.

4T1 mammary tumors = assay: Ex vivo fluorescence imaging of tumor and organs after IV Alexa546-peptides; assay type: in vivo; details: 24 hours after IV, three mice
Procedure: The murine 4T1 xenograft model, which closely mimics stage IV of human breast cancer, was used in our study. Small 4T1 tumor (tumor volume <150 mm^3) generates a significant level of lactate and serves as a good model of an aggressive, acidic tumor[35]. All peptides were covalently conjugated with Alexa546-malemide. […] The mean fluorescence of tumor, muscle, kidney, liver and lungs were recorded and analyzed (Fig. 6).
All animal studies were conducted according to the animal protocol AN04-12-011 approved by the Institutional Animal Care and Use Committee at the University of Rhode Island, in compliance with the principles and procedures outlined by NIH for the Care and Use of Animals. 4T1 breast tumors were established by subcutaneous injection of 4T1 cells (8 × 10^5 cells/0.1 mL/flank) in the right flank of adult female BALB/c mice (about 19–22 g weight) obtained from Harlan Laboratories. When tumors reached about 6 mm in diameter single tail vein injections of 100 μl of 40 μM Alexa546-peptides were performed. […] Mean fluorescence intensity of tumor and organs was calculated using Kodak software.

O=C(O)CC[C@@H]1NC(=O)[C@H](CS)NC(=O)[C@H](Cc2c[nH]c3ccccc23)NC(=O)[C@H](Cc2c[nH]c3ccccc23)NC(=O)[C@H](Cc2c[nH]c3ccccc23)NC(=O)[C@H](Cc2c[nH]c3ccccc23)NC(=O)[C@H](Cc2c[nH]c3ccccc23)NC(=O)[C@H](CCC(=O)O)NC(=O)[C@H](CCC(=O)O)NC(=O)[C@H](CCC(=O)O)NC1=O [c[E4W5C]]
apparent pK (pKa) of peptide's partitioning into the bilayer [1]: 5.7 | maximum position of the fluorescence spectrum λmax, Pep, pH8 ([2]; peptide in phosphate buffer pH 8, no liposomes, 5 μM peptide, excitation 280 nm, 25 °C): 350.6±0.2 nm | maximum position of the fluorescence spectrum λmax, Pep-PC, pH3 ([2]; with POPC liposomes pH 3, 5 μM peptide, 1.25 mM lipids, excitation 280 nm, 25 °C): 340.2±0.4 nm | S, normalized area under the spectra, Pep-PC, pH3 ([2]; with POPC liposomes pH 3, normalized on area for peptide at pH 8 in absence of POPC): 2.4±0.5 | maximum position of the fluorescence spectrum λmax, Pep-PC, pH8 ([2]; with POPC liposomes pH 8, 5 μM peptide, 1.25 mM lipids, excitation 280 nm, 25 °C): 342.8±0.4 nm | S, normalized area under the spectra, Pep-PC, pH8 ([2]; with POPC liposomes pH 8, normalized on area for peptide at pH 8 in absence of POPC): 2.4±0.3 | percentage of fluorescence quenching, Pep-PC+AC pH3 ([3]; 235 mM acrylamide, pH 3): 54% | percentage of fluorescence quenching, Pep-PC+AC pH8 ([3]; 235 mM acrylamide, pH 8): 61% | percentage of fluorescence quenching, Pep-PC+10-DN pH3 ([3]; 10% of lipids replaced by 10-DN, pH 3): 52% | percentage of fluorescence quenching, Pep-PC+10-DN pH8 ([3]; 10% of lipids replaced by 10-DN, pH 8): 49% | Tumor/Muscle ratio (4T1 mammary tumors): 5.6
